From patent US20060183221A1, “Method for neural differentiation of embryonic stem cells using protease passaging techniques” (priority 2003, published 2006)

Tested on: seeded sfEBMs derived from domed HESC colonies
Test: S18 treatment of seeded serum free embryoid bodies (sfEBMs), cell death by morphology and DAPI staining
Format: cell-based, human
Excerpt: sfEBMs were derived from domed HESC colonies, grown in suspension for 24 days with one passage, and seeded to polyornithine/laminin coated chamber slides in DMEM/F12, supplemented with 1×N2 (Gibco), and 1% FCS.
Apoptosis in seeded serum free embryoid bodies was monitored by morphological observation of cell death and DAPI staining to reveal apoptotic nuclei. Apoptotic nuclei were observed as obviously fragmented and degenerating nuclei, with small punctuate patterns of DAPI staining. Rosette regions from essentially serum free embryoid bodies in suspension were passaged further in the same medium, either withdrawing S18 or culturing the embryoid bodies for an additional 4 to 8 days in the presence of S18. Rosette regions were then seeded onto polyornithine/laminin coated slides for analysis of proliferation and differentiation to neural lineages.

CCCCCCCC/C=C\CCCCCCCC(=O)NC(CO)CO [S18, N-(2-hydroxy-1-(hydroxymethyl)ethyl)-oleoylamide]
time until the effect was observed (6, 8 or 10 μM S18): ≤ 24 h
effect on neural rosette structures (6, 8 or 10 μM S18 for 36 hours): did not appear to be adversely affected
induction of apoptosis in the culture (6, 8 or 10 μM S18 for 36 hours): induced apoptosis of a large proportion of the culture
cell death (36 hours exposure to 6 μM S18): a high proportion of cells within these cultures have been killed
cell death (36 hours exposure to 8 μM S18): a high degree of cell death is apparent
